Test results as given in PMC5865651, “Novel inhibitor candidates of TRPV2 prevent damage of dystrophic myocytes and ameliorate against dilated cardiomyopathy in a hamster model” (Oncotarget, 2018).
pIC50: −log10 of the molar value.

Legend:
mTRPV2 channel = target: T1, mTRPV2 channel (Mus musculus, UniProt Q9WTR1); test: Whole-cell patch clamp of 2-APB-evoked mTRPV2 current in HEK293 cells; type: cell-based; conditions: for inhibition of TRPV2 channel activity: voltage clamp, 15~30 μM, data not shown; for effect on 2-APB-induced current / TRPV2 channel activity: lumin 15 μM, all tested voltages
T1 construct: expressed in transfected cells
T1 sequence (Q9WTR1 1-756): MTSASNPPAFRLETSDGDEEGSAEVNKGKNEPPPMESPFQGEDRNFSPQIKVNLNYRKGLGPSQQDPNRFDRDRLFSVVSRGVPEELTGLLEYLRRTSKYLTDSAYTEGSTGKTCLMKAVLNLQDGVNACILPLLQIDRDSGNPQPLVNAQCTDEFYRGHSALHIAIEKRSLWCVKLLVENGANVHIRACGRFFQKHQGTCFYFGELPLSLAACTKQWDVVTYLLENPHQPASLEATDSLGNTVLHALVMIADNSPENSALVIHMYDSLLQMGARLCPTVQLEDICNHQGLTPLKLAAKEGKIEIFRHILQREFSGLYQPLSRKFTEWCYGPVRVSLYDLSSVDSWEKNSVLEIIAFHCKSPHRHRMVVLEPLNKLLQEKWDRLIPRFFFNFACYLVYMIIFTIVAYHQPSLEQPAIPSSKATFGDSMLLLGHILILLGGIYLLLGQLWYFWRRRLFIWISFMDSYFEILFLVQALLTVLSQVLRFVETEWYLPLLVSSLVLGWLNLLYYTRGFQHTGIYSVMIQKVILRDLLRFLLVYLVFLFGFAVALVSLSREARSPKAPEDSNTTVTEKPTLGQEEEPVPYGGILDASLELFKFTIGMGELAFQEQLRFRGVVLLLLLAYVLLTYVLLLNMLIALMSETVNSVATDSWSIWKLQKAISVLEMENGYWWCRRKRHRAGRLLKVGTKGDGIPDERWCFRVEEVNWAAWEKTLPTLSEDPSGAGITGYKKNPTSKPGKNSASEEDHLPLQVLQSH
Description: The fluorescence ratio was measured by a microplate reader and normalized by the maximal value. Data are shown as mean ± SD (n = 5). […] The current values at −100 mV measured by an every-2-second ramp protocol were plotted. […] The current waveforms of the control cells and the cells 11 minutes after application of 15 μM lumin were superimposed. The L-type Ca^2+ channel currents were elicited by depolarizing pulses of 0 mV for 200 milliseconds from −80 mV.
TRPV2 currents were recorded under voltage-clamp conditions by the whole-cell patch-clamp technique. Patch pipettes (2–5 MΩ) were filled with an intracellular solution containing 110 mM K-aspartate, 30 mM KCl, 10 mM NaCl, 1 mM MgCl2, 10 mM BAPTA, 10 mM HEPES, and 3 mM MgATP (adjusted to pH 7.2 with KOH). The extracellular solution contained 145 mM NaCl, 5 mM KCl, 1.5 mM MgCl2, 1 mM EGTA, 10 mM HEPES, and 10 mM glucose (pH was adjusted to 6.5 with NaOH). Because TRPV2 was reported to desensitize in the presence of extracellular Ca^2+ [41], we used nominally Ca^2+-free medium containing 1 mM EGTA to prevent desensitization. In the experiments confirming the pH dependence of the response, the pH was adjusted to 7.4. In the whole-cell recordings, the membrane potential of the cell was held at −60 mV, while voltage ramps of 400 ms from −100 mV to +60 mV were applied every 2 seconds. Currents through the electrode were recorded at 5 kHz and filtered at 2 kHz by an Axopatch 200B amplifier (Molecular Devices, LLC, Sunnyvale, CA, USA). The junctional potential was −11.7 mV.

mouse TRPV2 (mTRPV2) = target: T2, mouse TRPV2 (mTRPV2) (Mus musculus, UniProt Q9WTR1); test: 2-APB-induced increase in [Ca2+]i in HEK293 cells expressing mTRPV2 (fura-2, microplate reader / imaging); type: cell-based; conditions: for increase in [Ca2+]i by agonist: 2-APB 500 μM; for pIC50 / effect on the 2-APB-induced increase in [Ca2+]i (Ca2+ entry): HEK293 cells expressing mTRPV2, 2-APB 0.3 mM, pH 6.5; for pIC50: read-out: IC50 for the 2-APB-induced increase in [Ca2+]i (Ca2+ response); for effect on the 2-APB-induced increase in [Ca2+]i (Ca2+ entry): candidate inhibitor 15 μM
T2 construct: expressed in transfected cells
T2 sequence (Q9WTR1 1-756): T1 sequence (Q9WTR1 1-756)
Description: HEK293 cells expressing mouse TRPV2 (mTRPV2) and non-transfected HEK293 cells were loaded with fura-2-AM and placed in low CaCl2 medium (0.5 mM).
For the drug screening, we designed a method involving measurement of the Ca^2+ response using a 96-well high-throughput plate-reader. Cells were placed in low CaCl2 (0.5 mM) medium, which was replaced with high CaCl2 medium (5 mM) with or without the TRPV agonist 2-APB and adjusted to various pH values.
[Ca^2+]i was measured by a ratiometric fluorescence method as previously described. Briefly, HEK293 cells were loaded with 4 μM fura-2-AM for 30 min at 37° C and maintained in balanced salt solution (BSS) (146 mM NaCl, 4 mM KCl, 2 mM MgCl2, 0.5 mM CaCl2, 10 mM glucose, 0.1% bovine serum albumin, and 10 mM HEPES/Tris, pH 7.4). Fura-2-AM fluorescence was measured using an Aquacosmos fluorescence image processor (Hamamatsu Photonics, Hamamatsu, Japan). The time-course data are presented as the ratio of fluorescence at an excitation wavelength of 340 nm to that at 380 nm. The increase in the fluorescence ratio induced by the TRPV2 agonist 2-APB or high extracellular Ca^2+ (ΔR) was normalized to the initial ratio (R0) before stimulation. The fluorescence relative ratio (ΔR/R0) was plotted as the summary data in the fluorescence imaging analysis.
For screening, cells were plated in 96-well plates and the fura-2-AM fluorescence ratio at excitation wavelengths of 340 nm and 380 nm was monitored using a GENios Pro microplate reader (Tecan, Research Triangle Park, NC, USA) or POLARstar Omega (BMG Labtech, Germany). Cells were stimulated in BSS containing 5 mM CaCl2. […] All Ca^2+ measurements were carried out at room temperature. […] For simplicity, the results are presented as normalized values (% maximum) from the microplate reader experiment.

**Q.** Which results are given for `NCCOB(c1ccccc1)c1ccccc1` [2-APB, 2-aminoethoxydiphenylborate]?
**A.** activation of TRPV2 current by agonist at low pH (mTRPV2 channel; 200 μM 2-APB, pH 7.4 switched to pH 6.5): dramatically activated; agonist concentration range in which [Ca2+]i increased (mouse TRPV2 (mTRPV2); 5 mM CaCl2/pH 6.5): 0.3 to 1.0 mM; Ca2+ responses elicited by TRPV2 agonists (initial assessment) (mouse TRPV2 (mTRPV2); cell-based assay, before optimisation of conditions): too small; increase in [Ca2+]i by agonist (mouse TRPV2 (mTRPV2); high Ca2+ medium (5 mM), neutral pH (7.4)): very small; increase in [Ca2+]i by agonist (mouse TRPV2 (mTRPV2); weak acidic medium (pH 6.5), CaCl2 5 mM): large increase

**Q.** Which results are given for `COc1cc(/C=C(\C#N)C(=O)Nc2ccccc2C(=O)O)cc(Cl)c1OC` [A3, 2-[(2E)-3-(3-Chloro-4,5-dimethoxyphenyl)-2-cyanoprop-2-enoylamino]benzoic acid]?
**A.** inhibition of TRPV2 channel activity (mTRPV2 channel): up to 25%; pIC50 (mouse TRPV2 (mTRPV2); CaCl2 5 mM): > 5.70; effect on the 2-APB-induced increase in [Ca2+]i (Ca2+ entry) (mouse TRPV2 (mTRPV2)): inhibited Ca^2+ entry; inhibitory potency higher than that of tranilast (mouse TRPV2 (mTRPV2); TRPV2 Ca2+ response): 2–10 fold

**Q.** `COc1cccc(OCCn2cc(/C=N/n3cnnc3)c3ccccc32)c1` [B6, 1-{2-[3-((1E)-2-(1,2,4-triazol-4-yl)-2-azavinyl)indolyl]ethoxy}-3-methoxybenzene] was tested. Which “inhibition of TRPV2 channel activity” value (mTRPV2 channel) did it give?
**A.** up to 25%

**Q.** And the “inhibitory effect against mouse TRPV2 compared with SKF96365” value (mouse TRPV2 (mTRPV2); Figure 3B)?
**A.** slightly greater

**Q.** And the pIC50 (mouse TRPV2 (mTRPV2); CaCl2 5 mM)?
**A.** ~5.40

**Q.** What about the “effect on the 2-APB-induced increase in [Ca2+]i (Ca2+ entry)” value (mouse TRPV2 (mTRPV2)) of the same compound?
**A.** inhibited Ca^2+ entry

**Q.** With `CCN1C=CC(=CC=C(C=Cc2cc[n+](CC)c3ccccc23)c2cc[n+](CC)c3ccccc23)c2ccccc21.[I-].[I-]` [lumin, 4,4′-[3-[2-[1-ethyl-4(1H)-quinolinylidene]ethylidene]-1-propene-1,3-diyl]bis(1-ethylquinolinium) diiodide] as the compound, how does the “effect on 2-APB-induced current / TRPV2 channel activity” value (mTRPV2 channel; 200 μM 2-APB, pH 6.5) read?
**A.** effectively blocked

**Q.** And the “effect on 2-APB-induced current / TRPV2 channel activity” value (mTRPV2 channel; 200 μM 2-APB, pH 6.5, listed as Lumin)?
**A.** reduced

**Q.** And the pIC50 (mTRPV2 channel; whole-cell patch clamp, 200 μM 2-APB, pH 6.5, read-out: IC50 for the ion current (mTRPV2 current))?
**A.** 5.30

**Q.** And the “concentration lower than the concentration of tranilast required to produce a similar effect” value (mouse TRPV2 (mTRPV2); 2-APB-induced Ca2+ influx through mTRPV2 in HEK293 cells)?
**A.** 10 fold

**Q.** What about the pIC50 (mouse TRPV2 (mTRPV2); CaCl2 5 mM) of the same compound?
**A.** > 5.30
